Reference: patent US8877748B2, “Heterocyclic fused anthraquinone derivatives, manufacturing method and pharmaceutical composition using thereof” (National Defense Medical Center, priority 2012, dated 2014)

Assays:
human tumor cell lines = test: NCI one-dose screening, Mean / Delta / Range of growth percent over all tested cell lines; assay type: cell-based; conditions: 10 μM
MOLT-4 = test: NCI one-dose screening, leukemia MOLT-4; assay type: cell-based, human; conditions: 10 μM
NCl/ADR-RES = test: NCI one-dose screening, breast cancer NCl/ADR-RES; assay type: cell-based, human; conditions: 10 μM; listed under Ovarian cancer
SN12C = test: NCI one-dose screening, renal cancer SN12C; assay type: cell-based, human; conditions: 10 μM
OVCAR-4 = test: NCI one-dose screening, ovarian cancer OVCAR-4; assay type: cell-based, human; conditions: 10 μM
OVCAR-5 = test: NCI one-dose screening, ovarian cancer OVCAR-5; assay type: cell-based, human; conditions: 10 μM
SNB-75 = test: NCI one-dose screening, CNS cancer SNB-75; assay type: cell-based, human; conditions: 10 μM
SF-268 = test: NCI one-dose screening, CNS cancer SF-268; assay type: cell-based, human; conditions: 10 μM
SF-295 = test: NCI one-dose screening, CNS cancer SF-295; assay type: cell-based, human; conditions: 10 μM
UACC-62 = test: NCI one-dose screening, melanoma UACC-62; assay type: cell-based, human; conditions: 10 μM
HOP-62 = test: NCI one-dose screening, non-small cell lung cancer HOP-62; assay type: cell-based, human; conditions: 10 μM
IGROV1 = test: NCI one-dose screening, ovarian cancer IGROV1; assay type: cell-based, human; conditions: 10 μM
SF-539 = test: NCI one-dose screening, CNS cancer SF-539; assay type: cell-based, human; conditions: 10 μM
PRMI-8226 cell line = test: NCI one-dose screening, leukemia PRMI-8226; assay type: cell-based, human; conditions: 10 μM
SNB-19 = test: NCI one-dose screening, CNS cancer SNB-19; assay type: cell-based, human; conditions: 10 μM
PC-3 = test: NCI one-dose screening, prostate cancer PC-3; assay type: cell-based, human; conditions: 10 μM
SK-MEL-28 = test: NCI one-dose screening, melanoma SK-MEL-28; assay type: cell-based, human; conditions: 10 μM
COLO 205 = test: NCI one-dose screening, colon cancer COLO 205; assay type: cell-based, human; conditions: 10 μM
UACC-257 = test: NCI one-dose screening, melanoma UACC-257; assay type: cell-based, human; conditions: 10 μM
U251 = test: NCI one-dose screening, CNS cancer U251; assay type: cell-based, human; conditions: 10 μM
[1] = tested on: PC-3 prostate cancer cell line; test: SRB assay cell viability, PC-3 prostate cancer cell line; assay type: cell-based, human; conditions: Homo sapiens, PC-3 prostate cancer cell line, Table II prints no unit, μM printed, read-out: SRB assay: 50% inhibition of cancer cell proliferation of sample concentration (IC50) of PC-3 prostate cancer cell line
LOX IMVI = test: NCI one-dose screening, melanoma LOX IMVI; assay type: cell-based, human; conditions: 10 μM
HCT-15 = test: NCI one-dose screening, colon cancer HCT-15; assay type: cell-based, human; conditions: 10 μM
786-O = test: NCI one-dose screening, renal cancer 786-O; assay type: cell-based, human; conditions: 10 μM
BT-549 = test: NCI one-dose screening, breast cancer BT-549; assay type: cell-based, human; conditions: 10 μM
CAKI-1 = test: NCI one-dose screening, renal cancer CAKI-1; assay type: cell-based, human; conditions: 10 μM
HL-60, TB = test: NCI one-dose screening, leukemia HL-60, TB; assay type: cell-based, human; conditions: 10 μM
NCI-H322M = test: NCI one-dose screening, non-small cell lung cancer NCI-H322M; assay type: cell-based, human; conditions: 10 μM; Non-small cell lung cancer
OVCAR-3 = test: NCI one-dose screening, ovarian cancer OVCAR-3; assay type: cell-based, human; conditions: 10 μM
MALME-3M = test: NCI one-dose screening, melanoma MALME-3M; assay type: cell-based, human; conditions: 10 μM
ACHN = test: NCI one-dose screening, renal cancer ACHN; assay type: cell-based, human; conditions: 10 μM
RXF, 393 = test: NCI one-dose screening, renal cancer RXF, 393; assay type: cell-based, human; conditions: 10 μM
SK-MEL-5 = test: NCI one-dose screening, melanoma SK-MEL-5; assay type: cell-based, human; conditions: 10 μM
OVCAR-8 = test: NCI one-dose screening, ovarian cancer OVCAR-8; assay type: cell-based, human; conditions: 10 μM
SR = test: NCI one-dose screening, leukemia SR; assay type: cell-based, human; conditions: 10 μM
EKVX = test: NCI one-dose screening, non-small cell lung cancer EKVX; assay type: cell-based, human; conditions: 10 μM
KM12 = test: NCI one-dose screening, colon cancer KM12; assay type: cell-based, human; conditions: 10 μM
M14 = test: NCI one-dose screening, melanoma M14; assay type: cell-based, human; conditions: 10 μM
A549/ATCC = test: NCI one-dose screening, non-small cell lung cancer A549/ATCC; assay type: cell-based, human; conditions: 10 μM
HCC-2998 = test: NCI one-dose screening, colon cancer HCC-2998; assay type: cell-based, human; conditions: 10 μM
NCI-H23 = test: NCI one-dose screening, non-small cell lung cancer NCI-H23; assay type: cell-based, human; conditions: 10 μM
DU145 = test: NCI one-dose screening, prostate cancer DU145; assay type: cell-based, human; conditions: 10 μM
UO-31 = test: NCI one-dose screening, renal cancer UO-31; assay type: cell-based, human; conditions: 10 μM
NCI-H522 = test: NCI one-dose screening, non-small cell lung cancer NCI-H522; assay type: cell-based, human; conditions: 10 μM
MDA-MB-468 = test: NCI one-dose screening, breast cancer MDA-MB-468; assay type: cell-based, human; conditions: 10 μM
MCF7 = test: NCI one-dose screening, breast cancer MCF7; assay type: cell-based, human; conditions: 10 μM
MDA, -MB-435 = test: NCI one-dose screening, breast cancer MDA, -MB-435; assay type: cell-based, human; conditions: 10 μM; listed under Melanoma
HCT-116 = test: NCI one-dose screening, colon cancer HCT-116; assay type: cell-based, human; conditions: 10 μM
SK-MEL-2 = test: NCI one-dose screening, melanoma SK-MEL-2; assay type: cell-based, human; conditions: 10 μM
NCI-H460 = test: NCI one-dose screening, non-small cell lung cancer NCI-H460; assay type: cell-based, human; conditions: 10 μM
HT29 = test: NCI one-dose screening, colon cancer HT29; assay type: cell-based, human; conditions: 10 μM
MDA-MB-231/ATCC = test: NCI one-dose screening, breast cancer MDA-MB-231/ATCC; assay type: cell-based, human; conditions: 10 μM
T-47D = test: NCI one-dose screening, breast cancer T-47D; assay type: cell-based, human; conditions: 10 μM
CCRF-CEM = test: NCI screening platform one-dose single concentration screening, leukemia CCRF-CEM; assay type: cell-based, human; conditions: 10 μM
NCI-H226 = test: NCI one-dose screening, non-small cell lung cancer NCI-H226; assay type: cell-based, human; conditions: 10 μM
TK-10 = test: NCI one-dose screening, renal cancer TK-10; assay type: cell-based, human; conditions: 10 μM
K562cell line = test: NCI one-dose screening, leukemia K562; assay type: cell-based, human; conditions: 10 μM
HS 578-T = test: NCI one-dose screening, breast cancer HS 578-T; assay type: cell-based, human; conditions: 10 μM; Breast cancer

O=C1c2ccccc2C(=O)c2c1cc(N1CCSCC1)c1nsnc21 [C15, 4-(thiomorpholino)anthra[2,1-c][1,2,5] thiadiazol-6,11-dione]
Growth Percent Delta (human tumor cell lines; delta over all cell lines): 70.03% | Growth Percent Mean (human tumor cell lines; mean over all cell lines): 70.31% | Growth Percent Range (human tumor cell lines; range over all cell lines): 119.98% | Growth Percent MOLT-4 (MOLT-4): 42.86% | Growth Percent NCI/ADR-RES (NCl/ADR-RES): 54.16% | Growth Percent SN12C (SN12C): 76.76% | Growth Percent OVCAR-4 (OVCAR-4): 0.28% | Growth Percent OVCAR-5 (OVCAR-5): 112.62% | Growth Percent SNB-75 (SNB-75): 105.73% | Growth Percent SF-268 (SF-268): 95.90% | Growth Percent SF-295 (SF-295): 94.85% | Growth Percent UACC-62 (UACC-62): 83.96% | Growth Percent HOP-62 (HOP-62): 76.66% | Growth Percent IGROV1 (IGROV1): 75.28% | Growth Percent SF-539 (SF-539): 90.64% | Growth Percent RPMI-8226 (PRMI-8226 cell line): 56.96% | Growth Percent SNB-19 (SNB-19): 100.15% | Growth Percent PC-3 (PC-3): 56.99% | Growth Percent SK-MEL-28 (SK-MEL-28): 90.60% | Growth Percent COLO 205 (COLO 205): 107.31% | Growth Percent UACC-257 (UACC-257): 35.78% | Growth Percent U251 (U251): 40.24% | IC50 [1]: > 15 µM | Growth Percent LOX IMVI (LOX IMVI): 30.16% | Growth Percent HCT-15 (HCT-15): 61.93% | Growth Percent 786-0 (786-O): 120.26% | Growth Percent BT-549 (BT-549): 104.74% | Growth Percent CAKI-1 (CAKI-1): 76.06% | Growth Percent HL-60(TB) (HL-60, TB): 51.57% | Growth Percent NCI-H322M (NCI-H322M): 91.69% | Growth Percent OVCAR-3 (OVCAR-3): 41.52% | Growth Percent MALME-3M (MALME-3M): 48.56% | Growth Percent ACHN (ACHN): 83.52% | melting point: 219 to 220 °C | Growth Percent RXF 393 (RXF, 393): 85.93% | Growth Percent SK-MEL-5 (SK-MEL-5): 22.81% | Growth Percent OVCAR-8 (OVCAR-8): 41.72% | Growth Percent SR (SR): 55.02% | Growth Percent EKVX (EKVX): 86.63% | Growth Percent KM12 (KM12): 83.12% | Growth Percent M14 (M14): 117.70% | Growth Percent A549/ATCC (A549/ATCC): 62.74% | Growth Percent HCC-2998 (HCC-2998): 107.83% | Growth Percent NCI-H23 (NCI-H23): 33.45% | Growth Percent DU145 (DU145): 79.83% | Growth Percent UO-31 (UO-31): 61.00% | Growth Percent NCI-H522 (NCI-H522): 38.70% | Growth Percent MDA-MB-468 (MDA-MB-468): 12.59% | Growth Percent MCF7 (MCF7): 49.73% | Growth Percent MDA-MB-435 (MDA, -MB-435): 77.03% | Growth Percent HCT-116 (HCT-116): 88.21% | Growth Percent SK-MEL-2 (SK-MEL-2): 43.98% | Growth Percent NCI-H460 (NCI-H460): 87.46% | Growth Percent HT29 (HT29): 86.91% | Growth Percent MDA-MB-231/ATCC (MDA-MB-231/ATCC): 45.69% | Growth Percent T-47D (T-47D): 56.78% | Growth Percent CCRF-CEM (CCRF-CEM): 43.60% | Growth Percent NCI-H226 (NCI-H226): 78.10% | Growth Percent TK-10 (TK-10): 106.46% | Growth Percent K562 (K562cell line): 59.58% | Growth Percent HS 578T (HS 578-T): 84.36%
